For one test, the target named is T1, TBK1 (Homo sapiens, UniProt Q9UHD2).
T1 construct: host or cells: RA1-ISRE beta-lactamase reporter cells
T1 sequence (Q9UHD2 1-729): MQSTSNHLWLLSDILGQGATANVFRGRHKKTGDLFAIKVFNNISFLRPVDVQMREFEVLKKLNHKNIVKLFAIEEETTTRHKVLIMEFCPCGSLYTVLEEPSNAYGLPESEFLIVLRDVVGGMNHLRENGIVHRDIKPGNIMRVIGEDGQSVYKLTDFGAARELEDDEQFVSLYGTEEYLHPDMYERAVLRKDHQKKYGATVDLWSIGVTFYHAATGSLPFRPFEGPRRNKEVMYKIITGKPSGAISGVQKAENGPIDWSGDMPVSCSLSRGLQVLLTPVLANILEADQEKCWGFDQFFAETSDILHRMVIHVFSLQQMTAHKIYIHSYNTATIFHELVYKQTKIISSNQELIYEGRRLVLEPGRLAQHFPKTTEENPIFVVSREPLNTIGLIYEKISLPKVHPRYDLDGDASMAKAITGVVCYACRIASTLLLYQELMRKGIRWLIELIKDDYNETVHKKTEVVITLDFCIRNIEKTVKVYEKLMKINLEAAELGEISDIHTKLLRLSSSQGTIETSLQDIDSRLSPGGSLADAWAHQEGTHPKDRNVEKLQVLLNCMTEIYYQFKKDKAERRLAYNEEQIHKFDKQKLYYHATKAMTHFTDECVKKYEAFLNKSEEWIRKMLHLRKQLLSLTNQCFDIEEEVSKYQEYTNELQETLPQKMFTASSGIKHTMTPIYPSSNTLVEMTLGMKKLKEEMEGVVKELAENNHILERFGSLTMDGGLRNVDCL
In words: Inhibition of TBK1 in Cells (TLR3 driven ISRE β-lactamase reporter assay). Type of test: cell-based. The conditions noted are these: poly IC-LMW stimulation 16 hrs; -log(EC50), EC50 molar; read-out: Inhibition of TBK1 in cells pEC50 (EC) (converted). In short, it runs like this:
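RA1-ISRE β-lactamase reporter cells (50,000/well) treated with 11-point 2.5-fold compound dilutions and stimulated with 0.15 mg/ml poly IC-LMW for 16 hrs. Reporter read by CCF4-AM FRET; EC50 from non-linear fit of percent inhibition, reported as pEC50 (molar).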
Background: In a reporter assay the amount or activity of a reporter protein is the signal.

For a further test, the target named is T2, Full length human TBK1 (Homo sapiens, UniProt Q9UHD2).
T2 construct: Full length human TBK1 with an N-terminal His-tag; His-tag (N); made in house; host or cells: Sf9 insect cells (baculovirus, pFastBac1)
T2 sequence (Q9UHD2 1-729): T1 sequence (Q9UHD2 1-729)
In words: Inhibition of TBK1 Enzyme (Caliper microfluidic assay). Type of test: biochemical. Particulars: 25 μM ATP, 60 min at RT; -log(IC50), IC50 molar; read-out: TBK1 Inhibition (pIC50) (converted). The procedure, abridged:
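Enzyme: His-tagged full-length TBK1 expressed in Sf9. Reaction 60 min at RT in 20 mM Hepes pH 7.4, 10 mM MgCl2, 1 mM EDTA, 0.01% Brij-L23, 1 mM DTT, with 5FAM-peptide (added at 1 μM) and TBK1/ATP mix (added at 3 nM/25 μM), then EDTA-quenched. Conversion measured by microfluidic separation; 11-point 2.5-fold series fit to pIC50.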

SMILES strings stand for the structures.

The record followed here is patent publication US9598424B2 (Takeda Pharmaceutical Company Limited, priority 2014, dated 2017).

`N[C@H]1CCCC(F)(F)[C@@H]1NC(=O)c1cc(-c2ccc3nc(NC(=O)C4CC4)cn3c2)cs1` [Example 126, N-((1R,6S)-6-amino-2,2-difluorocyclohexyl)-4-(2-(cyclopropanecarboxamido)imidazo[1,2-a]pyridin-6-yl)thiophene-2-carboxamide]: the EC50 at TBK1 was 55 nM. In addition, the IC50 on Full length human TBK1 was 10 nM.

As to `Cc1sc(C(=O)NCC(F)(F)F)cc1-c1ccc2nc(NC(=O)C3CC3)cn2n1` [Example 23, 4-(2-(cyclopropanecarboxamido)imidazo[1,2-b]pyridazin-6-yl)-5-methyl-N-(2,2,2-trifluoroethyl)thiophene-2-carboxamide], the EC50 on TBK1 is 5370 nM. The IC50 at Full length human TBK1 was 79.4 nM.

On to `O=C(N[C@H]1CCOC1)c1cc(-c2ccc3nc(NC(=O)C4CC4)cn3c2)[nH]n1` [Example 53, (S)-5-(2-(cyclopropanecarboxamido)imidazo[1,2-a]pyridin-6-yl)-N-(tetrahydrofuran-3-yl)-1H-pyrazole-3-carboxamide], for which the EC50 on TBK1 is 25100 nM. Also, the IC50 on Full length human TBK1 was 158 nM.

As to `O=C(NC1CCCC1=O)c1cc(-c2ccc3nc(NC(=O)C4CC4)cn3c2)cs1` (stereo not shown) [Example 85, 4-(2-(cyclopropanecarboxamido)imidazo[1,2-a]pyridin-6-yl)-N-(2-oxocyclopentyl)thiophene-2-carboxamide], the EC50 at TBK1 was 4070 nM. The IC50 at Full length human TBK1 is 100 nM.

Regarding `O=C(Nc1cn2cc(-c3csc(C(=O)N4CCC[C@@H]4C(F)(F)F)n3)ccc2n1)C1CC1` [Example 93, (R)-N-(6-(2-(2-(trifluoromethyl)pyrrolidine-1-carbonyl)thiazol-4-yl)imidazo[1,2-a]pyridin-2-yl)cyclopropanecarboxamide], the EC50 on TBK1 is 110 nM. Further, on Full length human TBK1, the IC50 is 7.94 nM.

Consider `O=C(NC1CCCOC1)c1cc(-c2ccc3nc(NC(=O)C4CC4)cn3c2)cs1` (stereo not shown) [Example 67, 4-(2-(cyclopropanecarboxamido)imidazo[1,2-a]pyridin-6-yl)-N-(tetrahydro-2H-pyran-3-yl)thiophene-2-carboxamide], for which the EC50 on TBK1 is 1170 nM. Moreover, the IC50 at Full length human TBK1 is 63.1 nM.

For `N[C@@H]1CCCC(F)(F)[C@@H]1NC(=O)c1cc(-c2ccc3nc(NC(=O)C4CC4)cn3c2)cs1` [Example 125, N-((1R,6R)-6-amino-2,2-difluorocyclohexyl)-4-(2-(cyclopropanecarboxamido)imidazo[1,2-a]pyridin-6-yl)thiophene-2-carboxamide], at TBK1, the EC50 is 19.1 nM. Further, the IC50 at Full length human TBK1 was 6.31 nM.

With `O=C(NCC(F)F)c1nc(-c2cn3cc(NC(=O)C4CC4)nc3cn2)cs1` [Example 5, 4-(2-(cyclopropanecarboxamido)imidazo[1,2-a]pyrazin-6-yl)-N-(2,2-difluoroethyl)thiazole-2-carboxamide], at TBK1, the EC50 was 794 nM. In addition, the IC50 on Full length human TBK1 is 10 nM.

As for `O=C(NCC(F)F)c1ccn(-c2ccc3nc(NC(=O)C4CC4)cn3c2)n1` [Example 35, 1-(2-(cyclopropanecarboxamido)imidazo[1,2-a]pyridin-6-yl)-N-(2,2-difluoroethyl)-1H-pyrazole-3-carboxamide], at TBK1, the EC50 is 5250 nM. Also, at Full length human TBK1, the IC50 is 79.4 nM.

In the case of `CN(CC(F)(F)F)C(=O)c1cc(-c2ccc3nc(NC(=O)C4CC4)cn3c2)n[nH]1` [Example 106, 3-(2-(cyclopropanecarboxamido)imidazo[1,2-a]pyridin-6-yl)-N-methyl-N-(2,2,2-trifluoroethyl)-1H-pyrazole-5-carboxamide], the EC50 at TBK1 was 589 nM. Besides, the IC50 on Full length human TBK1 is 31.6 nM.

Regarding `O=C(N[C@@H]1CCOC1)c1cc(-c2ccc3nc(NC(=O)C4CC4)cn3c2)cs1` [Example 71, (R)-4-(2-(cyclopropanecarboxamido)imidazo[1,2-a]pyridin-6-yl)-N-(tetrahydrofuran-3-yl)thiophene-2-carboxamide], the EC50 at TBK1 was 2400 nM. Moreover, the IC50 on Full length human TBK1 is 20 nM.
